US12529108B2, “Compositions, methods and kits for characterizing and screening for small cell ovarian carcinoma” (THE TRANSLATIONAL GENOMICS RESEARCH INSTITUTE, priority 2014, dated 2026)

What was measured:
SMARCA2 protein = SMARCA2 protein level by Western blotting after HDAC inhibitor treatment; assay type: cell-based, human; conditions: BIN67 and SCCOHT1 cells; Western blotting (FIG. 18B)
Excerpt: FIGS. 18A-18D depict characterization of SMARCA4/A2 expression in SCCOHT cell lines. […] FIGS. 18C and 18D show Lentivirus-based re-expression of SMARCA4/A2 in BIN67 cells inhibits cell growth.
To understand the roles of these two mutually exclusive ATPases in SCCOHT etiology, we will elucidate the epigenetic consequences of re-expression of one or both SWI/SNF complex ATPases in SCCOHTs.

SCCOHT cell lines = experiment: FGFR compounds profiling in a drug dose-dependent manner, cell viability; assay type: cell-based; conditions: Homo sapiens; both SCCOHT cell lines (FIG. 22B)
Description: FIGS. 22A and 22B show the characterization of FGFR and MERTK inhibition in BIN67 cell line. […] Four unique sequences per target were tested; GFP sequence is used as a negative scramble control. Cell viability was measured using CellTiter Glo.
Our finding of FGFRs as synthetic lethal targets, in both our HT-RNAi and compound pilot screens, in SCCOHT is novel. […] As we also identified FGFR inhibitors in our pilot compound screen, we further tested 8 FGFR inhibitors in vitro.

BIN67 = experiment: Pilot compound screen (LOPAC and Prestwick libraries), cell viability (CellTiter Glo); assay type: cell-based, human; conditions: 5 μM and 10 μM; viability at 72 hours post-treatment; shared hits from HepG2 counterscreen filtered out
Excerpt: The BIN67 cell line has been characterized for optimal growth conditions, doubling time, cell seeding density, FBS concentration, siRNA transfection conditions (transfection reagent and lipid-to-siRNA ratio to achieve transfection efficiency of 95% or higher), and DMSO tolerance. We have also banked large numbers of BIN67 cells from the same passage to facilitate future screening. Furthermore, we have performed pilot compound and RNAi screens on this cell line.
In BIN67 we screened the LOPAC and Prestwick chemical libraries, diverse libraries of small molecules with good bioavailability and toxicity profiles. These libraries contain 2,400 drugs with subsets of FDA-approved drugs and pharmacologically active compounds. We completed 2 runs in BIN67 with duplicates at concentrations of 5 μM and 10 μM and measured cell viability at 72 hours post-treatment with CellTiter Glo (Promega). The high quality screen was exceeded NIH standards with covariance <5% and Z′-factor 0.83-0.91. […] Notable classes of lead compounds enriched in these hits included 9 cardiac glycosides, 6 tubulin polymerization inhibitors, 2 topoisomerase II inhibitors, and 2 Src/FGFR family kinase inhibitors. In particular, the tubulin inhibitors vincristine and […] are currently used clinically for SCCOHT patients. This serves as a positive confirmation for the robustness and reliability of our screen.

[1] = test system: SMARCA4/A2 negative SCCOHT cell lines BIN67 and SCCOHT1; experiment: High-throughput screen of epigenetic agents, cell viability (CellTiter Glo); assay type: cell-based, human; conditions: 3-fold 20-point dilution series, viability 3 days after treatment (FIG. 21)
Description: FIG. 21 depicts SCCOHT sensitivity to epigenetic agents. Cells plated at 1,000 cells/well in a 384-well plate were treated with indicated agents using a serial 3-fold 20-point dilution series. Cell viability was measured 3 days after treatment using CellTiter Glo. Surviving cells were measured and normalized to DMSO-treated cells and IC50s calculated by curve-fitting.
Thus, as in MRTs, targeting epigenetic modifications may have therapeutic potential in SCCOHT. To evaluate the activity of a panel of epigenetic drugs in SCCOHT we performed high-throughput screening in the SMARCA4/A2 negative SCCOHT cell lines BIN67 and SCCOHT1. Effects of epigenetic modifiers from all main classes of epigenetic agents—modifiers of acetylated histones as well as inhibitors of DNA methylation, histone methyltransferases and HDACs—are shown in FIG. 21. BIN67 and SCCOHT1 cells are […] sensitive to many of these agents. […] We have found HDAC2 to be overexpressed in most SCCOHTs including these cell lines.

Structure (SMILES): CC(/C=C/C(=O)NO)=C\[C@@H](C)C(=O)c1ccc(N(C)C)cc1 [trichostatin A]
- upregulation of SMARCA2 protein (SMARCA2 protein): dose-dependent upregulation

Structure (SMILES): Cc1ccc(C(=O)Nc2ccc(CN3CCN(C)CC3)c(C(F)(F)F)c2)cc1C#Cc1cnc2cccnn12 [ponatinib]
- IC50 (SCCOHT cell lines): 5 to 333 nM

Structure (SMILES): COc1cc([C@@H]2c3cc4c(cc3[C@@H](O[C@@H]3O[C@@H]5CO[C@@H](C)O[C@H]5[C@H](O)[C@H]3O)[C@H]3COC(=O)[C@H]23)OCO4)cc(OC)c1O [etoposide]
- hypersensitivity (screen hit) of BIN67 (BIN67): hypersensitivity

Structure (SMILES): C/C=C1\NC(=O)[C@H]2CSSCC/C=C/[C@H](CC(=O)N[C@H](C(C)C)C(=O)N2)OC(=O)[C@H](C(C)C)NC1=O [Rombidepsin, Romidepsin]
- sensitivity of SCCOHT cells to epigenetic agents [1]: most sensitive

Structure (SMILES): CC[C@]1(O)C[C@H]2CN(CCc3c([nH]c4ccccc34)[C@@](C(=O)OC)(c3cc4c(cc3OC)N(C=O)[C@H]3[C@@](O)(C(=O)OC)[C@H](OC(C)=O)[C@]5(CC)C=CCN6CC[C@]43[C@@H]65)C2)C1 [vincristine]
- hypersensitivity (screen hit) of BIN67 (BIN67): hypersensitivity
